# Source: article PMC9951879, “Synthesis of New Shogaol Analogues as NRF2 Activators and Evaluation of Their Anti-Inflammatory Activity, Modes of Action and Metabolic Stability” (Antioxidants, 2023)
# Like-named read-outs stand apart in the source and are kept apart here.
# Columns and labels:
# GSTP1 = assay: qPCR gene expression in Hepa1c1c-7 cells: GSTP1; type: cell-based, mouse; settings: 1 μM, 48 h, Hepa-1c1c7 cells
# Procedure: (§1) Hepa1c1c-7 cells were treated with STCs (1 μM) for 48 h, and the total RNA was isolated using QIAzol®lysis reagent (Qiagen, Germany). Next, cDNA was synthesised using the ReverTra Ace® qPCR RT Master Mix Kit (Toyobo Research Reagents, Osaka, Japan). Quantitative PCR was performed using THUNDERBIRD^TM Next SYBR® qPCR Mix (Toyobo Research Reagents, Osaka, Japan) in CFX96 Touch Real-Time PCR Detection System (Bio-Rad Laboratories, San Jose, CA, USA). The genes tested and the respective primers (purchased from Integrated DNA Technologies, Coralville, IA, USA) used in the study are shown in Table 1. β-actin was used as a reference gene for the normalisation of target gene expression. The 2^−ΔΔCt method was used to measure the relative expression of target genes.
# [1] = tested on: free thiol content in NRF2-proficient BV-2 cells; assay: Thiol quantification assay in BV-2 cells; type: cell-based, mouse
# Procedure: The anti-inflammatory activity of the STCs was determined in E. coli lipopolysaccharide (LPSEc; Sigma Aldrich, USA)-induced inflammation in NRF2-proficient and NRF2 siRNA-transfected mouse microglial (BV-2) cells. The NRF2 was silenced in BV-2 cells using NRF2 siRNA (Santa Cruz Biotechnology, Dallas, TX, USA) in Opti-MEM transfection medium (Thermo Fisher Scientific, USA) using Lipofectamine^TM LTX reagent with PLUS^TM reagent (Thermo Fisher Scientific, USA) following the manufacturer’s protocol and reported method. The cells (5 × 10^5 cells/well) were allowed to form a monolayer by incubating them for 24 h and then adding LPSEc (200 ng/mL) for 4 h. […] The nitric oxide (NO) level in cell supernatant was determined using the Griess reagent kit (Thermo Fisher Scientific, USA). The levels of proinflammatory cytokines (IL-1β, IL-6, IFN-γ, and TNF-α) in cell supernatant solutions were determined using commercially available ELISA kits (Abcam, Cambridge, UK). […] The protein concentration was determined using Bradford’s assay kit (Thermo Fisher Scientific, USA) following the manufacturer’s instructions. The expression of COX-2, NF-κB p65, NRF2, and HO-1 in cell lysates was determined using commercially available ELISA kits (Abcam, St, Louis, Missouri, USA) following the manufacturer’s protocol. In addition, the thiol content was determined using a thiol quantification assay kit (Abcam, USA).
# PRDX1 = assay: qPCR gene expression in Hepa1c1c-7 cells: PRDX1; type: cell-based, mouse; settings: 1 μM, 48 h, Hepa-1c1c7 cells
# Procedure: as §1
# [2] = Vybrant MTT cytotoxicity assay in BV-2 cells together with LPSEc; type: cell-based; settings: mouse, BV-2 microglial cells, BV-2 cells plus LPSEc 200 ng/mL, read-out: cell viability
# Procedure: (§2) The safe dose of the test compounds on murine hepatoma (Hepa1c1c-7) and mouse microglial cells (BV-2) was assessed by determining their cytotoxicity using Vybrant® MTT Cell Proliferation Assay Kit (Thermo Fisher Scientific, USA) following the manufacturer’s protocol. In the case of BV-2 cells, the cytotoxicity of the test compounds was assessed together with E. coli lipopolysaccharide (LPSEc), 200 ng/mL. The cell density was 5 × 10^5 cells/well (in a 96-well plate), and they were preincubated for 24 h. The test compounds (10, 5, 2.5, 1.25, and 0.625 μM) were then added to each well (in triplicate) and incubated for another 24 h. The solution’s absorbance was measured using Spectramax (Molecular Devices, San Jose, California, USA) M3 microplate reader. The cell viability was calculated using the following formula, and the results are presented as mean ± SD. Percent cell viability %=Atreated cells−Ablank /Auntreated cells−Ablank×100%
# NQO1 = assay: qPCR gene expression in Hepa1c1c-7 cells: NQO1; type: cell-based, mouse; settings: 1 μM, 48 h, Hepa-1c1c7 cells
# Procedure: as §1
# [3] = Vybrant MTT cytotoxicity assay in Hepa-1c1c7 cells; type: cell-based; settings: mouse, read-out: cell viability
# Procedure: as §2
# GSTM2 = assay: qPCR gene expression in Hepa1c1c-7 cells: GSTM2; type: cell-based, mouse; settings: 1 μM, 48 h, Hepa-1c1c7 cells
# Procedure: as §1
# TXNRD1 = assay: qPCR gene expression in Hepa1c1c-7 cells: TXNRD1; type: cell-based, mouse; settings: 1 μM, 48 h, Hepa-1c1c7 cells
# Procedure: as §1
# G6PDX = assay: qPCR gene expression in Hepa1c1c-7 cells: G6PDX; type: cell-based, mouse; settings: 1 μM, 48 h, Hepa-1c1c7 cells
# Procedure: as §1
# GCLC = assay: qPCR gene expression in Hepa1c1c-7 cells: GCLC; type: cell-based, mouse; settings: 1 μM, 48 h, Hepa-1c1c7 cells
# Procedure: as §1
# GCLM = assay: qPCR gene expression in Hepa1c1c-7 cells: GCLM; type: cell-based, mouse; settings: 1 μM, 48 h, Hepa-1c1c7 cells
# Procedure: as §1
smiles,measurement,setting,value
"CCCCC/C=C/C(=O)CCc1ccc(O)c(OC)c1 [6-shogaol, reference compound]",GSTP1 gene expression foldchange (compared to control),GSTP1,2.12 ± 0.09
same,free thiol content,"[1]; NRF2-proficient BV-2 cells, untreated cells = 100%",35.03 ± 3.70%
same,PRDX1 gene expression foldchange (compared to control),PRDX1,1.37 ± 0.07
same,"viability at 24 h, 5 µM",[2]; concentrations ≥ 5 μM,< 90%
same,NQO1 gene expression foldchange (compared to control),NQO1,1.20 ± 0.06
same,viability at 24 h,"[3]; Hepa-1c1c7 cells, 5 and 10 μM",< 90%
same,GSTM2 gene expression foldchange (compared to control),GSTM2,1.19 ± 0.05
same,TXNRD1 gene expression foldchange (compared to control),TXNRD1,1.20 ± 0.08
same,G6PDX gene expression foldchange (compared to control),G6PDX,2.27 ± 0.03
same,GCLC gene expression foldchange (compared to control),GCLC,1.20 ± 0.05
same,GCLM gene expression foldchange (compared to control),GCLM,2.28 ± 0.10
"COc1cc(CCC(=O)/C=C/c2cc(-c3ccccc3)cs2)ccc1O [STC5, (E)-5-(4-Hydroxy-3-methoxyphenyl)-1-(4-phenylthiophen-2-yl)pent-1-en-3-one]",GSTP1 gene expression foldchange (compared to control),GSTP1,3.71 ± 0.09
same,reactivity with thiols lower than that of 6-shogaol,[1]; versus 6-shogaol,about 70%
same,PRDX1 gene expression foldchange (compared to control),PRDX1,3.04 ± 0.09
same,NQO1 gene expression foldchange (compared to control),NQO1,2.94 ± 0.01
same,GSTM2 gene expression foldchange (compared to control),GSTM2,3.19 ± 0.05
same,TXNRD1 gene expression foldchange (compared to control),TXNRD1,2.52 ± 0.06
same,G6PDX gene expression foldchange (compared to control),G6PDX,3.83 ± 0.02
same,GCLC gene expression foldchange (compared to control),GCLC,2.31 ± 0.05
same,GCLM gene expression foldchange (compared to control),GCLM,3.91 ± 0.09
"COc1cc(CCC(=O)/C=C/c2ccc([N+](=O)[O-])s2)ccc1O [STC8, (E)-5-(4-Hydroxy-3-methoxyphenyl)-1-(5-nitrothiophen-2-yl)pent-1-en-3-one]","viability at 24 h, 2.5 µM",[2]; concentrations ≥ 2.5 μM,< 90%
same,viability at 24 h,"[3]; Hepa-1c1c7 cells, 2.5, 5 and 10 μM",< 90%
